{"source": "patent US20100267765A1", "about": "“Pharmaceutical Compositions and Methods for CCR5 Antagonists” (priority 2007, published 2010)", "assay_type_in_all_cases": "in vivo, human", "key": {"[1]": {"system": "fasting lipid parameters", "assay": "MERIT study: fasting lipoprotein profile (total cholesterol, HDL, LDL, triglycerides)", "conditions": "for HDL cholesterol levels on treatment: 48 weeks", "text": "(§1) The MERIT study design included a fasting metabolic assessment at baseline and at Weeks 24 and 48 or at early study discontinuation, to evaluate the fasted lipid values in the MERIT study and their potential effect on cardiovascular risk.\n(§2) For a 50% smoking rate scenario (which approximates to the smoking rate seen in the DAD Study-Friis-Møller N, et al. N Engl J Med 2003; 349:1993-2003), smoking status (yes/no) was randomly imputed to the study population 500 times, by sampling from a binomial distribution with a probability of success of 0.5. Smoking status was assumed to remain constant for the duration of the study."}, "[2]": {"system": "LDL cholesterol", "assay": "MERIT study: on-treatment fasting LDL cholesterol vs NCEP cutpoints", "conditions": "with Combivir", "text": "as §1, §2"}, "[3]": {"assay": "MERIT study: 10-year coronary heart disease risk by Framingham equation", "conditions": "for Absolute CHD 10-year risk (mean [SD]): Framingham equation, simulated smoking rate 50%, with Combivir", "text": "as §2"}, "[4]": {"system": "total cholesterol/HDL ratio", "assay": "MERIT study: total cholesterol/HDL ratio", "conditions": "with Combivir; ARV-naive R5 HIV-1 patients; P=0.005 between groups", "text": "as §1, §2"}, "[5]": {"system": "LDL cholesterol", "assay": "Example 1: fasting LDL cholesterol after 24 weeks, OBT plus maraviroc vs OBT plus placebo", "method": "(§3) The eligible patients were randomised into three groups based on the drug regimens they received.\n(§4) Prior to the first dose (Day 1), a fasting assessment was made, in which the following was measured and taken as the baseline measurement: total cholesterol, HDL, LDL, triglycerides, glucose and glycosolated haemoglobin.\n(§5) After 24 weeks of treatment or early termination, the same lipid parameters (in particular HDL levels) were measured again."}, "[6]": {"system": "HDL cholesterol", "assay": "Example 1: fasting HDL cholesterol after 24 weeks, OBT plus maraviroc vs OBT plus placebo", "conditions": "for Numbers of individuals with maximum % increase in HDL cholesterol in range 10 to >30 (sum, within sensitivity range of assay) / Numbers of individuals with maximum % increase in HDL cholesterol relative to baseline 0-5% / Numbers of individuals with maximum % increase in HDL cholesterol relative to baseline 5-<10% / Numbers of individuals with maximum % increase in HDL cholesterol relative to baseline 10-<20% / Numbers of individuals with maximum % increase in HDL cholesterol relative to baseline 20-<30% / Numbers of individuals with maximum % increase in HDL cholesterol relative to baseline <0% / Numbers of individuals with maximum % increase in HDL cholesterol relative to baseline ≧30% / Mean % Change in HDL / Mean % difference from Group1 (placebo) (95% Confidence Interval) in HDL: 24 weeks", "method": "as §3, §4\nHDL as part of a lipid profile was measured by Covance laboratories (Indianapolis, Ind.).\nas §5"}, "[7]": {"system": "HIV-1 (CXCR4 using viral population)", "assay": "Example 1: HIV-1 RNA viral load reduction after 24 weeks", "conditions": "for Treatment difference in VL (95% confidence interval) / Mean VL reduction: 24 weeks", "text": "The baseline HIV-1 RNA count was taken prior to the first dose (Day 1) and at multiple time points during the 24-week study period."}, "[8]": {"conditions": "patients already above threshold at baseline excluded, P<0.0001"}, "[9]": {"conditions": "Group 2: OBT plus maraviroc 150 or 300 mg po QD, N = 63"}, "[10]": {"conditions": "Group 3: OBT plus maraviroc 150 or 300 mg po BID, N = 61"}, "[11]": {"conditions": "Group 2: OBT plus maraviroc QD, n = 45"}, "[12]": {"conditions": "Group 3: OBT plus maraviroc BID, n = 48"}}, "data": [{"molecule": "O=C1Nc2ccc(Cl)cc2[C@@](C#CC2CC2)(C(F)(F)F)O1", "note": "[efavirenz]", "values": [{"measurement": "Percentage of patients with increases in total cholesterol and LDL cholesterol levels at some point after baseline to ≧130 mg/dL", "setting": "[1]; efavirenz compared with maraviroc, P<0.0001, FIG. 3b", "result": "greater percentage"}, {"measurement": "Median maximum changes from baseline in total cholesterol, HDL cholesterol, LDL cholesterol and triglyceride levels", "setting": "[1]; efavirenz group compared with maraviroc group, with Combivir, FIG. 1b", "result": "significantly greater"}, {"measurement": "HDL cholesterol levels on treatment", "setting": "[1]; with Combivir", "result": "improved"}, {"measurement": "Number of patients who initiated LDL-lowering therapy during the study", "setting": "[2]", "result": "six"}, {"measurement": "Relation of change in LDL cholesterol to baseline LDL cholesterol", "setting": "[2]; FIG. 2b", "result": "directly related"}, {"measurement": "Patients with high on-treatment LDL cholesterol level (≧160 mg/dL) at both Week 24 and Week 48 (%)", "setting": "[2]; P=0.007", "result": 2.9, "unit": "%"}, {"measurement": "Patients with high on-treatment LDL cholesterol level (≧160 mg/dL) at both Week 24 and Week 48 (n/N)", "setting": "[2]; P=0.007", "result": "10/343"}, {"measurement": "Patients who developed LDL cholesterol levels during the study that were ≧160 mg/dL (%)", "setting": "[2]; [8]", "result": 9, "unit": "%"}, {"measurement": "Patients who developed LDL cholesterol levels during the study that were ≧160 mg/dL (n/N)", "setting": "[2]; [8]", "result": "31/343"}, {"measurement": "Absolute CHD 10-year risk (mean [SD])", "setting": "[3]; Week 24", "result": 3.0, "unit": "%"}, {"measurement": "Absolute CHD 10-year risk (mean [SD])", "setting": "[3]; Week 48", "result": 3.3, "unit": "%"}, {"measurement": "Relative risk of having a CHD event within 10 years", "setting": "[3]; efavirenz group vs maraviroc group at Week 24 and Week 48, smoking rate 50%, FIG. 5b", "result": "consistently higher"}, {"measurement": "Median decrease in the total cholesterol/HDL ratio", "setting": "[4]", "result": "−0.43"}]}, {"molecule": "(N-{(1S)-3-[3-isopropyl-5-methyl-4H-1,2,4-triazole-4-yl]-exo-8-azabicyclo[3.2.1]oct-8-yl}-1-phenylpropyl)-4,4-difluorocyclohexanecarboxamide) [maraviroc]", "values": [{"measurement": "HDL cholesterol levels on treatment", "setting": "[1]; with Combivir", "result": "improved"}, {"measurement": "Numbers of individuals with maximum % increase in LDL cholesterol in range 10 to >30 (sum, within sensitivity range of assay)", "setting": "[5]; [9]", "result": 20}, {"measurement": "Numbers of individuals with maximum % increase in LDL cholesterol relative to baseline 0-5%", "setting": "[5]; [9]", "result": 2}, {"measurement": "Numbers of individuals with maximum % increase in LDL cholesterol relative to baseline 5-<10%", "setting": "[5]; [9]", "result": 5}, {"measurement": "Numbers of individuals with maximum % increase in LDL cholesterol relative to baseline 10-<20%", "setting": "[5]; [9]", "result": 9}, {"measurement": "Numbers of individuals with maximum % increase in LDL cholesterol relative to baseline 20-<30%", "setting": "[5]; [9]", "result": 4}, {"measurement": "Numbers of individuals with maximum % increase in LDL cholesterol relative to baseline <0%", "setting": "[5]; [9]", "result": 11}, {"measurement": "Numbers of individuals with maximum % increase in LDL cholesterol relative to baseline ≧30%", "setting": "[5]; [9]", "result": 7}, {"measurement": "Numbers of individuals with maximum % increase in LDL cholesterol in range 10 to >30 (sum, within sensitivity range of assay)", "setting": "[5]; [10]", "result": 18}, {"measurement": "Numbers of individuals with maximum % increase in LDL cholesterol relative to baseline 0-5%", "setting": "[5]; [10]", "result": 4}, {"measurement": "Numbers of individuals with maximum % increase in LDL cholesterol relative to baseline 5-<10%", "setting": "[5]; [10]", "result": 1}, {"measurement": "Numbers of individuals with maximum % increase in LDL cholesterol relative to baseline 10-<20%", "setting": "[5]; [10]", "result": 5}, {"measurement": "Numbers of individuals with maximum % increase in LDL cholesterol relative to baseline 20-<30%", "setting": "[5]; [10]", "result": 3}, {"measurement": "Numbers of individuals with maximum % increase in LDL cholesterol relative to baseline <0%", "setting": "[5]; [10]", "result": 18}, {"measurement": "Numbers of individuals with maximum % increase in LDL cholesterol relative to baseline ≧30%", "setting": "[5]; [10]", "result": 10}, {"measurement": "LDL levels after treatment compared with placebo (Group 1)", "setting": "[5]; Table 1a", "result": "no increase over placebo"}, {"measurement": "Increase in HDL-C levels following treatment", "setting": "[6]; 300 mg BID maraviroc, Tables 2a, 3a", "result": "clear dose-related increase"}, {"measurement": "Numbers of individuals with maximum % increase in HDL cholesterol in range 10 to >30 (sum, within sensitivity range of assay)", "setting": "[6]; [9]", "result": 18}, {"measurement": "Numbers of individuals with maximum % increase in HDL cholesterol relative to baseline 0-5%", "setting": "[6]; [9]", "result": 6}, {"measurement": "Numbers of individuals with maximum % increase in HDL cholesterol relative to baseline 5-<10%", "setting": "[6]; [9]", "result": 4}, {"measurement": "Numbers of individuals with maximum % increase in HDL cholesterol relative to baseline 10-<20%", "setting": "[6]; [9]", "result": 7}, {"measurement": "Numbers of individuals with maximum % increase in HDL cholesterol relative to baseline 20-<30%", "setting": "[6]; [9]", "result": 2}, {"measurement": "Numbers of individuals with maximum % increase in HDL cholesterol relative to baseline <0%", "setting": "[6]; [9]", "result": 17}, {"measurement": "Numbers of individuals with maximum % increase in HDL cholesterol relative to baseline ≧30%", "setting": "[6]; [9]", "result": 9}, {"measurement": "Mean % Change in HDL", "setting": "[6]; [11]", "result": 13.1, "unit": "%"}, {"measurement": "Mean % difference from Group1 (placebo) (95% Confidence Interval) in HDL", "setting": "[6]; [11]", "result": "10.8 (−3.4, 25.0) %"}, {"measurement": "Numbers of individuals with maximum % increase in HDL cholesterol in range 10 to >30 (sum, within sensitivity range of assay)", "setting": "[6]; [10]", "result": 28}, {"measurement": "Numbers of individuals with maximum % increase in HDL cholesterol relative to baseline 0-5%", "setting": "[6]; [10]", "result": 5}, {"measurement": "Numbers of individuals with maximum % increase in HDL cholesterol relative to baseline 5-<10%", "setting": "[6]; [10]", "result": 1}, {"measurement": "Numbers of individuals with maximum % increase in HDL cholesterol relative to baseline 10-<20%", "setting": "[6]; [10]", "result": 9}, {"measurement": "Numbers of individuals with maximum % increase in HDL cholesterol relative to baseline 20-<30%", "setting": "[6]; [10]", "result": 8}, {"measurement": "Numbers of individuals with maximum % increase in HDL cholesterol relative to baseline <0%", "setting": "[6]; [10]", "result": 14}, {"measurement": "Numbers of individuals with maximum % increase in HDL cholesterol relative to baseline ≧30%", "setting": "[6]; [10]", "result": 11}, {"measurement": "Mean % Change in HDL", "setting": "[6]; [12]", "result": 17.4, "unit": "%"}, {"measurement": "Mean % difference from Group1 (placebo) (95% Confidence Interval) in HDL", "setting": "[6]; [12]", "result": "15.1 (1.1, 29.1) %"}, {"measurement": "Treatment difference in VL (95% confidence interval)", "setting": "[7]; Group 2: OBT plus maraviroc QD vs Group 1 (placebo)", "result": "+0.06 log10 copies/mL"}, {"measurement": "Mean VL reduction", "setting": "[7]; Group 2: OBT plus maraviroc QD", "result": "−0.91", "unit": "log10 copies/mL"}, {"measurement": "Treatment difference in VL (95% confidence interval)", "setting": "[7]; Group 3: OBT plus maraviroc BID vs Group 1 (placebo)", "result": "−0.23", "unit": "log10 copies/mL"}, {"measurement": "Mean VL reduction", "setting": "[7]; Group 3: OBT plus maraviroc BID", "result": "−1.20", "unit": "log10 copies/mL"}, {"measurement": "Reduction in viral load (VL) in HIV patients with CXCR4 using viral population", "setting": "[7]; after 24 weeks, vs Group 1", "result": "no statistically significant reduction"}, {"measurement": "Median decrease in the total cholesterol/HDL ratio", "setting": "[4]", "result": "−0.54"}]}]}
